Test: Human HepG2 cell viability assay in 384 well format
Format: toxicity, cell-based
Parameters: dose 125 nL, time 70.5 hour; cytotoxicity at 70.5 h: concentration not given beside the values
Conditions: HepG2 cells, read-out: Inhibition

Row | Compound | cytotoxicity at 70.5 h [%]
1 | Cc1nc(-c2nc(C(=O)NC3CC3)c3ccccn23)cn1C(C)C | -2.95
2 | CN(C)C(=O)C1CCC2(CCN(C(=O)Nc3cccc(F)c3)CC2)O1 (centres undefined) | -5.9
3 | O=C(c1cccs1)N1CCC2(CC1)CCN(S(=O)(=O)C1CC1)CC2 | -11.7
4 | CS(=O)(=O)N1CCC2(CCN(C(=O)c3cccs3)CC2)CC1 | -8.9
5 | CN(C)C(=O)C1CCC2(CCN(C(=O)Nc3ccccc3)CC2)O1 (centres undefined) | -8
6 | Cc1cccc(NC(=O)N2CCC3(CCC(C(=O)N(C)C)O3)CC2)c1 (centres undefined) | -11.4
7 | COC1COC2(CCN(S(=O)(=O)c3ccc(F)cc3)CC2)C1 (centres undefined) | 17.1
8 | CN1CCC(CO[C@H]2CN(C(=O)c3cccn3C)[C@@H]3COC[C@H]23)CC1 | -11.6
9 | Cn1ccnc1C(=O)NC[C@H]1OC[C@@H]2CCN(S(C)(=O)=O)C[C@@H]21 | 21.4
10 | CC(C)N1C(=O)C[C@H]2[C@@H]1CCN2C(=O)c1ccco1 | 24.5
11 | Cc1ccsc1C(=O)N1CCc2ncc(Cn3cccn3)n2CC1 | -6.33
12 | Cc1cccc(N2CC3(COCCN(c4ccncn4)C3)OCC2=O)c1 (centres undefined) | 0.341
13 | CC(=O)N1CCC2(CC1)C(=O)N(C)c1ccc(F)cc12 | -8.53
14 | O=C1COC2(COCCN(c3cnccn3)C2)CN1c1cccc(F)c1 (centres undefined) | -6.69
15 | Cn1cc(CN2C[C@@H]3CCC[C@@H](OCc4cccnc4)[C@@H]3C2)cn1 | 3.45
16 | CN1C(=O)CC(c2ccccc2)C12CCN(c1ncc(F)cn1)CC2 (centres undefined) | -1.24
17 | CC(=O)N1CCc2[nH]nc(C(=O)N3CC=CC3)c2C1 | 34.9
18 | COC[C@@]12CCC[C@@H]1CN(C(=O)Cc1ccco1)C2 | -5.39
19 | Cc1cc(CN2CCC(C3CCN(CCc4ccccc4)C3)CC2)[nH]n1 (centres undefined) | -0.374
20 | CCCn1nccc1C(=O)N1CCN(C(=O)C2CC2)[C@@H]2CS(=O)(=O)C[C@@H]21 | 11.1
21 | CC(C)N(CCO)C(=O)C1CCC(=O)N(Cc2ccc(Cl)cc2)C1 (centres undefined) | -4.75
22 | Cc1cccc(N2CCC3(CCCN3Cc3cn(C)nc3C)CC2)n1 | -9.08
23 | CN(C)C(C(=O)N1CCC(CCO)CC1)c1ccccc1F (centres undefined) | 8.83
24 | CNC(=O)c1cn2cc(-c3cccc(Cl)c3)n(CC3CC3)c(=O)c2n1 | -8.05
25 | CN(CC1(CO)CCOCC1)[C@@H]1c2ccccc2C2(CCNCC2)[C@H]1O | 19
26 | CC(C)N1CCCN(c2nc(-c3cccnc3)nc3c2cnn3C)CC1 | 36.6
27 | Cc1noc(-c2ccnc(Oc3ccc(CN4CCCC4)cc3C)c2)n1 | -4.76

Row | Compound | cytotoxicity at 70.5 h [%]
28 | COCCn1ccnc1CN1CCc2[nH]cnc2C1c1ccccn1 (centres undefined) | -11.2
29 | Cc1ccc(NCCCNc2nccc(-c3cn(C)nc3C)n2)nc1 | 13.9
30 | O=C1CCc2cc(NC(=O)N3CCCN(Cc4cccs4)CC3)ccc21 | -8.02
31 | CC(C)Cn1cncc1CNC1CCCNC1 (centres undefined) | -4.78
32 | Cc1cc(C)c2nc(C)cc(C(=O)N3CC(O)CO3)c2c1 (centres undefined) | 17.6
33 | NCCO[C@H]1C[C@@H](O)C12CCN(C(=O)COc1cccc(Cl)c1)CC2 | -5.89
34 | CCN(CCn1cccn1)Cc1nc(-c2cccc(C)c2)oc1C | -5.06
35 | CC(C)c1nc(CN(C)C(=O)CCc2ccc3c(c2)OCO3)cs1 | -9.76
36 | CCCN1CCCn2nc(CNS(=O)(=O)c3cccc(F)c3)cc2C1 | -5.1
37 | CC(c1ccccn1)N(C)Cc1ccc(-n2cncn2)cc1 (centres undefined) | -8.14
38 | CSCCC(=O)N1CCCN(c2ccccc2C)CC1 | 13.3
39 | Cn1ccnc1C1CCN(S(=O)(=O)c2ccc3[nH]c(=O)[nH]c3c2)CC1 | 15.5
40 | CCc1nc(C)sc1CN1CC[C@@](O)(C2CCOCC2)[C@H](C)C1 | -12.2
41 | COc1cc(N2CCCC(c3ncc[nH]3)C2)ncn1 (centres undefined) | -1.53
42 | Cc1ccc2nc(C)cc(C(=O)NCc3csc(N(C)C)n3)c2c1 | -2.75
43 | COc1cccc2ccc(CN3CCN(c4cccnc4)CC3)nc12 | 7.51
44 | COC(=O)NCC(=O)N1CCCC(c2ncc[nH]2)C1 (centres undefined) | -27.3
45 | Fc1cccc(C2(CNC3CCOC4(CCOCC4)C3)CCOCC2)c1 (centres undefined) | -5.85
46 | Cc1nn(C)cc1CN(C)c1nccc(-c2cn(C)nc2C)n1 | -0.948
47 | CCc1cc(N2CCCC(CC)(C(=O)O)C2)nc(N2CCOCC2)n1 (centres undefined) | 13.3
48 | CNCc1cn(CC2CCN(CC(C)(C)CN3CCCC3)CC2)nn1 | -13.6
49 | CCCOC(=O)N1CCCC(c2nnc(CN3CCOCC3)n2C)C1 (centres undefined) | 2.16
50 | Cn1nccc1C(=O)N1CCN(C(=O)C2CCC2)[C@@H]2CS(=O)(=O)C[C@@H]21 | -6.57
51 | CSCc1noc(CNC(=O)C2CCN(C(=O)C3CCC3)CC2)n1 | -11.8
52 | COc1ccc(Cc2nc3c([nH]2)CC(C)(C)CNC3=O)c(OC)c1 | -9.23
53 | CCCOc1ccc(C(=O)N2CCN3CCNC(=O)C3C2)cc1Cl (centres undefined) | -8.43
54 | Cn1cnc2cc(C(=O)N3CCN(CCO)[C@@H]4CS(=O)(=O)C[C@@H]43)ccc21 | -0.937

Reference: ChEMBL document CHEMBL3507680, “University of Dundee, Gates Library screen for HepG2 cell viability”
